This note sets out measurements from patent publication US20080262080A1, “Allergy Suppressive Agent” (KYUSHU UNIVERSITY, NATIONAL UNIVERSITY CORPORATION, priority 2004, published 2008).

Each structure is given as a SMILES string.

One assay deals with KU812 cells. Description: A23187-induced histamine release from human basophil cell line KU812. The following applies: 25 μM of chrysin, 5 μM A23187, vs control free from chrysin. Type of assay: cell-based. As for the experimental part: Human basophil cell line KU812 cells (5×10^6 cells/mL) were incubated in Tyrode buffer comprising 1 mM of CaCl2, to which 25 μM of chrysin had been added, and then stimulated with A23187. Histamine released from the cells and histamine cumulated in the cells were quantified to thereby determine the histamine release rate. Comparison was made with a control system free from chrysin.
Human basophil cell line KU812 cells (5×10^5 cells/mL) were incubated in Tyrode buffer (137 mM NaCl, 2.7 mM KCl, 1.8 mM CaCl2, 1.1 mM MgCl2, 1.19 mM NaHCO3, 0.4 mM NaH2PO4, pH 7.4) comprising 25 μM of chrysin and 1 mM of CaCl2 for 20 min at 37° C. After adding 5 μM of A23187 (Sigma Chemical Co.), the incubation was continued for an additional 20 min at 37° C. […] In a sample for quantifying histamine cumulated in cells, the cells were centrifuged at 300×g for 5 min, ultrasonically disrupted for about 1 min and then centrifuged at 12,000×g for 5 min and 1 mL of the supernatant was collected. To perform fluorescence measurement under alkaline conditions, a complex of histamine and o-phthaldehyde (Wako) was formed and partly extracted. […] The fluorescent intensity was measured using a fluorophotometer RF-1500 at an excitation wavelength of 360 nm and a fluorescent wavelength of 450 nm.

Assay [1] relates to blood antibody level (IgM, IgG, IgA, IgE). Briefly: Blood antibody level of mice antigen-sensitized with ovalbumin (OVA) after chrysin intake (ELISA). It is filed as in vivo, mouse. As for the experimental part:
Male BALB/c mice aged 8 weeks were divided into an AIN-93M-fed group (a control group) and a chrysin-comprising AIN-93M-fed group. After feeding with the individual feeds for 3 weeks, both groups were fed with the AIN-93M feed for 2 weeks. Each feed was given at a ratio of 5 g/day/animal while the animals were allowed to take water ad libitum. OVA-sensitization was conducted by injecting 100 μg of OVA/aluminum hydroxide gel into the peritoneal cavity of each mouse 1 and 2 weeks after the initiation of the feed, i.e., twice in total. On day 35, blood samples were collected and the total IgM, IgG and IgE levels in the serum were measured by ELISA. Reagents employed in ELISA for quantifying the antibody were as follows. In blocking, use was made of PBS comprising 1% of bovine serum albumin (Roche) (BSA-PBS). As solid phase antibodies, use was made of F(ab′)2 goat anti-mouse IgG antibody (Zymed Laboratories, Inc.), F(ab′)2 rabbit anti-mouse IgM antibody (Zymed Laboratories, Inc.) and rabbit anti-mouse IgA (Zymed Laboratories, Inc.). As secondary antibodies, use was made of HRP-labeled F(ab′)2 goat anti-mouse IgG(H(L) antibody (Zymed Laboratories, Inc.), HRP-labeled rabbit anti-mouse IgM antibody (Zymed Laboratories, Inc.) and HRP-labeled goat anti-mouse IgA antibody (Zymed Laboratories, Inc.). 2,2′-Anizo-bis(3-ethylbenzothiazoline-6-sulfonic acid) diammonium salt (ABTS) employed as a color development substrate was purchased from Wako Pure Chemical Industries, while oxalic acid was purchased from Nacalai tesque (Kyoto, Japan). A solid phase antibody solution (diluted 1000-fold with a 50 mM carbonate buffer) was pipetted into an immunoplate at a ratio of 100 μL/well and allowed to stand overnight at 4° C. After washing thrice with PBS comprising 0.1% of polyoxyethylene sorbitan monolaurate (Nacalai tesque) (TPBS), 300 μL/well of BSA-PBS was pipetted and incubation was conducted for 2 hours at 37° C. After washing thrice with TPBS, a sample and a standard solution, which were optionally diluted with BSA-PBS, were added at a ratio of 50 μL/well and allowed to stand overnight at 4° C. After washing thrice with TPBS, 100 μL/well of a secondary antibody solution (diluted 2000-fold with BSA-PBS) was pipetted and incubation was conducted for 1 hour at 37° C. After washing thrice with TPBS, 100 μL/well of a color development substrate solution was pipetted and color development was carried out. Then, 100 μL/well of oxalic acid was pipetted to cease the reaction and the absorbance was measured at 415 to 490 nm. As the color development substrate solution, a mixture of a 0.006% H2O2— comprising 0.2 M citrate buffer (pH 4.0), deionized water and a 10.94 mM ABTS solution (10:9:1) was employed. In the case of IgE, the procedure indicated in the protocol attached to a mouse IgE assay kit (Morinaga Biochemistry Lab.) was followed. Absorbance was measured using Immuno Mini NJ-2300 (Nippon Intermed).
(In general: In an ELISA, binding on a coated surface is turned into a signal by an enzyme label.)

[2] abbreviates: serum, day 35, BALB/c mice OVA-sensitized, chrysin-comprising feed 3 weeks.

As to `O=c1cc(-c2ccccc2)oc2cc(O)cc(O)c12` [Chrysin, 5,7-dihydroxyflavone], the “histamine release induced by A23187” value with KU812 cells is “significantly lowered”. Besides, the “blood IgE level compared with the control group” value in assay [1] (OVA-sensitized mice, in words) is “significantly lowered”. In addition, the “effect of chrysin intake on blood IgM, IgG and IgA levels” value in assay [1] (OVA-sensitized mice, in words, vs control group) is recorded as “no effect”. Moreover, in assay [1] (setting [2]), the IgA amounted to 0.6 ± 0.0 mg/mL, the IgG worked out at 23.5 ± 3.0 mg/mL and the IgM came out at 5.4 ± 0.2 mg/mL.
